Source: US10168338B2, “Methods of identifying modulators of sestrin-gator-2 interaction for modulating mTORC1 activity” (Whitehead Institute for Biomedical Research, priority 2014, dated 2019)

Legend:
[1] = biological target: T1, bacterially-produced Sestrin2 (Homo sapiens, UniProt P58004); test: Thermal shift (protein melting) assay; type: binding; conditions: Sestrin2 at 4 μM, Sypro orange; read-out: shift of the melting temperature of Sestrin2
T1 construct: made in house; host or cells: Escherichia coli BL21 DE3 star
T1 sequence (P58004 1-480): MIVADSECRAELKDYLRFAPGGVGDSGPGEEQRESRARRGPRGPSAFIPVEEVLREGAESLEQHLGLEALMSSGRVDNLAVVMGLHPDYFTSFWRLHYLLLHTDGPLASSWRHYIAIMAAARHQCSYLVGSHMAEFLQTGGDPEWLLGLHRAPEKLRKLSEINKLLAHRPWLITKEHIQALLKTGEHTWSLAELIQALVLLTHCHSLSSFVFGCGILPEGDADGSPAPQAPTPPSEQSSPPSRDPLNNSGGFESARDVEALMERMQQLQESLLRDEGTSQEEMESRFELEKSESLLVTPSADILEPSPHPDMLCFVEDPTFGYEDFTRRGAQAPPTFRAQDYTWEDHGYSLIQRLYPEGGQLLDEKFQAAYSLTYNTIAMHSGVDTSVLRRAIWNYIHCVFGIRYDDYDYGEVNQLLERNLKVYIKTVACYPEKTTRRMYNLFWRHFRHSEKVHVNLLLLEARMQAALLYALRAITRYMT
Procedure: Specific binding of leucine to the bacterially produced Sestrin2 was further confirmed by thermal shift assays. The thermal shift (protein melting) assays were performed according to the LightCycler® 480 instruction manual. Briefly, for Sestrin2, 5× Sypro® orange dye and Sestrin2 at 4 μM were combined with or without leucine or arginine (at the indicated concentrations) in thermal shift buffer (100 mM Tris pH 7.4, 100 mM NaCl, and 1 mM DTT) in a volume of up to 10 μl in one well of a LightCycler® Multiwell 384-well plate. 20× Sypro® orange dye was used for the two control proteins, human choline acetyltransferase (ChAT) (at 4 μM) or Physconitrella patens hydroxycinnamoyl transferase (PpHCT) (at 2.5 μM). Each condition was tested in triplicate. The plate was subjected to a protocol in which the temperature increased from 20° to 85° C. at 0.06° C./second. Fluorescence was recorded and plotted over time, and melting temperatures were calculated as described in the LightCycler® 480 instruction manual. Briefly, the negative first derivative of the curve shown (change in fluorescence/change in temperature) was plotted against the temperature. The peak (i.e., lowest point on this curve) reflects the melting temperature. Each reported melting temperature is the mean±SD for three replicates from one experiment.

[2] = biological target: T1, bacterially-produced Sestrin2; test: [3H]-leucine binding to bacterially-produced His-MBP-Sestrin2 on Ni-NTA resin; conditions: RagA-RagC heterodimer as control
Procedure: Recombinant Sestrin2 was expressed in Escherichia coli (strain BL21 DE3 star) from the His-MBP-TEV-Sestrin2 in pMAL6H-CSXT plasmid. The bacterial cultures were grown at 30° C. to an optical density of 0.4 at which point the temperature was lowered to 18° C. After 30 minutes at 18° C., the cultures were induced overnight at 18° C. with 0.5 mM IPTG. The cells were subsequently resuspended in lysis buffer with TCEP (50 mM Tris pH 7.4, 200 mM NaCl, 5 mM MgCl2, 0.1% CHAPS, 1 mM TCEP, 200 μM leucine, and protease inhibitor tablets), which was then supplemented with lysozyme and crude DNAse. The cells underwent mechanical homogenization and the lysates were cleared by centrifugation and then loaded onto the Ni-NTA resin. […]
For binding assays performed with bacterially-produced proteins, 23.6 μg His-RagA/RagC, 23.6 μg His-MBP-TEV-Sestrin2, or 73.6 μg His-MBP-TEV-Sestrin2 were diluted into 500 μl lysis buffer (50 mM Tris pH 7.4, 200 mM NaCl, 5 mM MgCl2, 0.1% CHAPS) and incubated with 15 μl compact Ni-NTA resin as previously described. […] The samples were then well mixed with a cut tip and 10 μl of each was loaded into scintillation fluid in triplicate and quantified with a TriCarb® Scintillation Counter. Samples performed in parallel were eluted with lysis buffer+300 mM imidazole and analyzed by SDS-PAGE as described above.

Sestrin2-GATOR2 complex = biological target: T2, Sestrin2-GATOR2 complex (Homo sapiens, UniProt P58004); test: Amino acids added to ice-cold detergent lysates of amino acid-starved HEK-293T cells, FLAG immunoprecipitation; type: binding; conditions: ice-cold detergent lysates of HEK-293T cells starved for all amino acids
T2 construct: To isolate the FLAG-WDR24/endogenous-Sestrin2 complex; endogenous in cells; host or cells: HEK-293T cells stably expressing FLAG-WDR24; Sestrin2 and the other GATOR2 subunits are endogenous
T2 sequence (P58004 1-480): T1 sequence (P58004 1-480)
Procedure: HEK-293T cells stably expressing the FLAG-tagged GATOR2 component WDR24 were starved of all amino acids for 50 minutes. Individual amino acids were added pre-lysis to the cell culture media or post-lysis to cell lysates prior to FLAG immunoprecipitation.
We next tested if leucine acts directly on the Sestrin2-GATOR2 complex.

CC(C)C[C@H](N)C(=O)O [leucine]
ΔTm [1]: ≤ 8.5 °C | binding of radiolabelled leucine to bacterially-produced Sestrin2 [2]: bound to bacterially-produced Sestrin2 | effect on Sestrin2-GATOR2 interaction when added to cell lysates (Sestrin2-GATOR2 complex): abrogated the interaction
